The text below walks through data of patent US9023816B2, “Bioactive alkaloid compositions and their medical uses” (Asiros A/S, priority 2013, dated 2015).

Assay [1] deals with T1, phosphodiesterase 4 (PDE4), PDE4A1A (Homo sapiens, UniProt P27815).
T1 construct: purchased BSP Bioscience 60340
As to the kind of experiment: PDE4A1A Assay Kit, fluorescence polarization. The format is biochemical. How it is done: Inhibition of PDE4 blocks hydrolysis of cAMP, thereby increasing levels of cAMP. The PDE4A1A Assay Kit is designed for identification of PDE4A1A inhibitors using fluorescence polarization. The assay is based on the binding of fluorescent AMP generated by PDE4A1A to the binding agent.
The assay was performed according to the protocol of the PDE4A1A assay provided by BSP Bioscience [BSP Bioscience, Data sheet PDE4A1A Assay Kit, Catalog #60340].
(§1) A fluorescence plate reader (Appliskan, Thermo Scientific) was used to detect fluorescence emission signals according to the following parameters:
(§2) Selected alkaloids of the invention prepared in example 1 were tested in 5 times dilutions to establish the 50% inhibitory concentration (IC-50).
In general terms: In fluorescence polarisation assays a small probe gives low polarisation when free and higher when bound to something large.

For assay [2], the system named is BKS Cg-Lepr db/Lepr db mice. As to the kind of experiment: Hypoglycemic effect in BKS Cg-Lepr db/Lepr db mice (NIDDM model). Format: in vivo, mouse. Particulars: 300 mg/kg oral daily, day 14 post dosing. How it is done:
Male non-insulin dependent diabetic mellitus (NIDDM) mice (BKS Cg-Lepr db/Lepr db) weighing 50+/−5 g were used at age of 12-13 weeks. A daily oral dose of 2000 mg/kg of RAP4 corresponding to corresponding to 112 μg/kg of Ribetril A and 492 μg/kg total Ribetrils as well as 240 μg/kg total Glucoindols was administered orally at a dosing volume of 10 mL/kg to 12 animals for a total of 14 consecutive days. The positive control of metformin (300 mg/kg) and vehicle (2% Tween 80) were each administered orally at a dosing volume of 10 mL/kg to groups of 6 animals once daily for a total of 14 consecutive days. Serum glucose levels were measured by means of an automated analyzer (TBA-120FR, Toshiba) and serum insulin by ELISA at zero min (pre-treatment) on Day 1, and at 90 min after the daily dosing (post-treatment) on Day 7 and Day 14.

Assay [3] concerns the target T2, phosphodiesterase 5A (PDE5) (Homo sapiens, UniProt O76074).
T2 construct: purchased BSP Bioscience 60350
As to the kind of experiment: PDE5A Assay Kit, fluorescence polarization. The format is biochemical. How it is done: Inhibition of PDE5 blocks hydrolysis of cGMP, thereby increasing levels of cGMP. The PDE5A Assay Kit is designed for identification of PDE5A inhibitors using fluorescence polarization. The assay is based on the binding of a fluorescent nucleotide monophosphate generated by PDE5A to the binding agent.
The assay was performed according to the protocol of the PDE5A assay provided by BSP Bioscience [BSP Bioscience, Data sheet PDE5A Assay Kit, Catalog #60350].
as §1, §2

The target of a further assay is T3, IkappaB kinase β (IKK-β) (Homo sapiens, UniProt O14920).
T3 construct: purchased Invitrogen
T3 sequence (O14920 1-756): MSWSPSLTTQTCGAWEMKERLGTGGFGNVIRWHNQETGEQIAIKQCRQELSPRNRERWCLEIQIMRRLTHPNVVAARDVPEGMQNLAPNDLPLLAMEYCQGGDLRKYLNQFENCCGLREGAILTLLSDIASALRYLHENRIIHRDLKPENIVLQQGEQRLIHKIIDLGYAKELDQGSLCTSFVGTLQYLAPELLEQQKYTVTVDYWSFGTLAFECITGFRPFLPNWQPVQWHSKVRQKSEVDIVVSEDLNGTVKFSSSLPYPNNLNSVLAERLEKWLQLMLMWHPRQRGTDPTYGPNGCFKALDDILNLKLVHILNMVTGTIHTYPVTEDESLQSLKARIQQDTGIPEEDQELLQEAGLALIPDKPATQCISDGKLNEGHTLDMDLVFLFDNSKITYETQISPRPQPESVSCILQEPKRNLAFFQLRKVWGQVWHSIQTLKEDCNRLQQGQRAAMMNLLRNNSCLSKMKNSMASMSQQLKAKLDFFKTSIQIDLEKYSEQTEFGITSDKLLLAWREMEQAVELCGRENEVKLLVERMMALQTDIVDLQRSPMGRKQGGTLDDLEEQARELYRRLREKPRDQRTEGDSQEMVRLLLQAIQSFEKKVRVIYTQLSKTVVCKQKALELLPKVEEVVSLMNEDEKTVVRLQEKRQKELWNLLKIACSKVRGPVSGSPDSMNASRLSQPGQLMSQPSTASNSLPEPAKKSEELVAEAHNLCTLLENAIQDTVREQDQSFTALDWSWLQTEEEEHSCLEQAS
As to the kind of experiment: IKK-β inhibition, Z'-LYTE Kinase Assay Kit Ser/Thr 5 Peptide (FRET). Format: biochemical. The procedure: IKK-β phosphorylates the inhibitory IκB protein associated with NF-κB. Phosphorylation results in the dissociation of IκB from NF-κB, allowing NF-κB to migrate into the cell nucleus where it can activate the transcription of at least 150 genes. The Z9-LYTE™ Kinase Assay Kit—Ser/Thr 5 Peptide is designed to screen for potential IKK-β inhibitory effect using fluorescence resonance energy transfer (FRET) between coumarin and fluorescein for detection by a fluorometer.
The assay was performed according to Z9-LYTE™ KINASE ASSAY KIT—SER/THR 5 PEPTIDE protocol provided by Invitrogen [Invitrogen, Z′-LYTE™ Kinase Assay Kit—Ser/Thr 5 Peptide Protocol, O-062187-r1 US 0405]. Based on the IKK-β certificate of the kit, a kinase concentration of 500 ng/ml was chosen. Km for ATP 9.4 μM was chosen according to an optimization for the LanthaScreen™ kinase assay [http://tools.invitrogen.com/content/sfs/manuals/IKBKB_%28IKK_beta %29_LanthaScreen_Activity.pdf].
as §1, §2

Assay [4] concerns hyperlipidemic guinea pigs. As to the kind of experiment: Hypocholesterolemic effect in hyperlipidemic guinea pigs induced by high fat diet. Format: in vivo, guinea pig. Particulars: 10 mg/kg oral once daily, 28 days. The procedure: Male Dunkin-Hartley guinea pigs weighing 300+/−30 g were acclimated one week before the in-life phase of the experiment. The study diet (Research Diets Inc, New Brunswick, N.J., USA) contained 15% corn oil and 0.25% cholesterol. A daily oral dose of 2000 mg/kg of RAP2 corresponding 9 μg/kg of Ribetril A and 82 μg/kg total Ribetrils as well as 632 μg/kg total Glucoindols was administered orally at a dosing volume of 10 mL/kg. A daily oral dose of 2000 mg/kg of RAP4 corresponding to 112 μg/kg of Ribetril A and 492 μg/kg total Ribetrils as well as 240 μg/kg total Glucoindols was administered orally at a dosing volume of 10 mL/kg. The positive control atorvastatin (10 mg/kg) and vehicle (0.5% methylcellulose) were each administered orally at a dosing volume of 10 mL/kg. […]
After fasting overnight, blood samples were obtained from the retro-orbital sinus of each animal 5 min before initial test substance and/or vehicle administration (pre-treatment) and 24 hours after dosing on days 14 and 28 (post-treatment). The serum total cholesterol (TC), low density lipoprotein cholesterol (LDL-C), high density lipoprotein cholesterol (HDL-C) and triglycerides (TG) were determined by an enzymatic method (Wako total cholesterol, LDL-C, HDL-C & TG diagnostic kit and Toshiba Automatic Analyzer Model TAB-120FR).

Setting [5] is: read-out: Inhibitory effect on PDE4 IC-50.
The mark [6] stands for this setting: read-out: Inhibitory effect on PDE5 IC-50.
Where [7] appears, read: read-out: Inhibitory effect on IKK-β IC-50.

Like-named read-outs stand apart in the source and are kept apart here. Bounds are passed on as bounds.

T1 sequence (P27815 1-647 isoform P27815-4): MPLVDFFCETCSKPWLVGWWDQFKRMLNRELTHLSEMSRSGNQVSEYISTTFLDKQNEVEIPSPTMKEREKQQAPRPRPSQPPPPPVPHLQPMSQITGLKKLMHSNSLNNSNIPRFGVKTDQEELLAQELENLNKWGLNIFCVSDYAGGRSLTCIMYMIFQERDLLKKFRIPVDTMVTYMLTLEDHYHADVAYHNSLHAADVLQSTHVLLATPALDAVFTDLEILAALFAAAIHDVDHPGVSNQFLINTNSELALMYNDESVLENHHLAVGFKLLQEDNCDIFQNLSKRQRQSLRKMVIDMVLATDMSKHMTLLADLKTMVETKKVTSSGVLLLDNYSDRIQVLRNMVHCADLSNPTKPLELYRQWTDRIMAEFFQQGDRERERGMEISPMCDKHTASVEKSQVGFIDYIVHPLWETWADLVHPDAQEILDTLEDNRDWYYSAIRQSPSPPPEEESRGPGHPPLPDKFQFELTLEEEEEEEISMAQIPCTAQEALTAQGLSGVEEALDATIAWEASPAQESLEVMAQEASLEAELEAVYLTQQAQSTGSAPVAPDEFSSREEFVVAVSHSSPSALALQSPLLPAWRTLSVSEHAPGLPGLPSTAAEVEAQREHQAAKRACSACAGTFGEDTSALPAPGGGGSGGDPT

Regarding `O=C(O)Cc1cn([C@@H]2O[C@H](CO)[C@@H](O)[C@H](O)[C@H]2O)c2ccccc12` [Glucoindol A, 2-(1-((2R,3R,4S,5S,6R)-3,4,5-trihydroxy-6-(hydroxymethyl)tetrahydro-2H-pyran-2-yl)-1H-indol-3-yl)acetic acid], in assay [1] (setting [5]), the IC50 turned out to be 86.1 µM.

As to `CN(C)C(=N)N=C(N)N` [metformin], the “serum glucose levels relative to vehicle control” value in assay [2] was “significant decrease”.

Consider `COC(=O)Cc1cn([C@@H]2O[C@H](CO)[C@@H](O)[C@H](O)[C@H]2O)c2ccccc12` [Glucoindol B, methyl 2-(1-((2R,3R,4S,5S,6R)-3,4,5-trihydroxy-6-(hydroxymethyl)tetrahydro-2H-pyran-2-yl)-1H-indol-3-yl)acetate], for which, in assay [1] (setting [5]), the IC50 was 45.6 µM.

As to `N#C/C(=C\CO[C@@H]1O[C@H](CO)[C@@H](O)[C@H](O)[C@H]1O)COC(=O)c1ccc(O)cc1` [Ribetril E, (E)-2-cyano-4-(beta-D-glucopyranosyloxy)but-2-en-1-yl 4-hydroxybenzoate], the IC50 is 3.4 µM in assay [3] (setting [6]), 3.5 µM in assay [1] (setting [5]) and 1.9 µM at IkappaB kinase β (IKK-β) (setting [7]).

For `N#C/C(=C\CO[C@@H]1O[C@H](CO)[C@@H](O)[C@H](O)[C@H]1O)COC(=O)/C=C/c1ccc(O)cc1` [Ribetril C, (E)-(E)-2-cyano-4-(beta-D-glucopyranosyloxy)but-2-en-1-yl 3-(4-hydroxyphenyl)acrylate], the IC50 in assay [3] (setting [6]) was 17.2 µM; in assay [1] (setting [5]), 59.7 µM; on IkappaB kinase β (IKK-β) (setting [7]), 15.3 µM.

On to `CC(C)c1c(C(=O)Nc2ccccc2)c(-c2ccccc2)c(-c2ccc(F)cc2)n1CC[C@@H](O)C[C@@H](O)CC(=O)O` [atorvastatin], for which the “triglyceride reduction” value in assay [4] is reported as “did not significantly reduce triglycerides”.

As to `N#C/C(=C\CO[C@@H]1O[C@H](CO)[C@@H](O)[C@H](O)[C@H]1O)COC(=O)/C=C/c1ccc(O)c(O)c1` [Ribetril A, (E)-(E)-2-cyano-4-(((2R,3R,4S,5S,6R)-3,4,5-trihydroxy-6-(hydroxymethyl)tetrahydro-2H-pyran-2-yl)oxy)but-2-en-1-yl 3-(3,4-dihydroxyphenyl)acrylate], the IC50 was 2.1 µM in assay [3] (setting [6]), 2.95 µM in assay [1] (setting [5]) and 0.13 µM on IkappaB kinase β (IKK-β) (setting [7]). Also, in assay [3] (vs Ribetril B), the “times lower IC-50 as compared to Ribetril B (PDE5)” value came to 3 times. In assay [3] (vs Ribetril C), the “times lower IC-50 as compared to Ribetril C (PDE5)” value stood at 8 times. Also, in assay [1] (vs Ribetril B), the “times lower IC-50 as compared to Ribetril B (PDE4)” value came out at 5 times. In assay [1] (vs Ribetril C), the “times lower IC-50 as compared to Ribetril C (PDE4)” value is on record as 20 times. For the same compound, the “times lower IC-50 as compared to Ribetril B (IKK-β)” value on IkappaB kinase β (IKK-β) (vs Ribetril B) is given as 48 times. Besides, the “times lower IC-50 as compared to Ribetril C (IKK-β)” value at IkappaB kinase β (IKK-β) (vs Ribetril C) was determined as 118 times.

In the case of `COc1cc(/C=C/C(=O)OC/C(C#N)=C/CO[C@@H]2O[C@H](CO)[C@@H](O)[C@H](O)[C@H]2O)ccc1O` [Ribetril B, (E)-(E)-2-cyano-4-(beta-D-glucopyranosyloxy)but-2-en-1-yl 3-(4-hydroxy-3-methoxyphenyl)acrylate], the figures for the IC50 (in assay [3] (setting [6]); in assay [1] (setting [5]); on IkappaB kinase β (IKK-β) (setting [7])) were 5.4 µM, 14 µM and 6.3 µM, respectively.

Take `COc1cc(C(=O)OC/C(C#N)=C/CO[C@@H]2O[C@H](CO)[C@@H](O)[C@H](O)[C@H]2O)ccc1O` [Ribetril D, (E)-2-cyano-4-(beta-D-glucopyranosyloxy)but-2-en-1-yl 4-hydroxy-3-methoxybenzoate]: the IC50 was less than 0.04 µM in assay [3], 0.23 µM in assay [1] and 0.037 µM at IkappaB kinase β (IKK-β).
